Measured values reported in article PMC8234031, “Modular Assembly of Phosphite Dehydrogenase and Phenylacetone Monooxygenase for Tuning Cofactor Regeneration” (Biomolecules, 2021).

Molecular target: T1, PAMOI (RIDD-tagged PAMO) (Thermobifida fusca, UniProt Q47PU3)
T1 construct: N-terminal 6xHis, C-terminal (GGGGS)x3 linker and 44-residue RIDD tag, kept; E. coli; 70 kDa; homodimer through the RIDD tag
Assay: UV-Vis absorbance ratio A280/A441 of the purified protein
Format: binding
Settings: co-purified flavin; ratio given for the tagged PAMO fusions together

T1 sequence (Q47PU3 whole entry): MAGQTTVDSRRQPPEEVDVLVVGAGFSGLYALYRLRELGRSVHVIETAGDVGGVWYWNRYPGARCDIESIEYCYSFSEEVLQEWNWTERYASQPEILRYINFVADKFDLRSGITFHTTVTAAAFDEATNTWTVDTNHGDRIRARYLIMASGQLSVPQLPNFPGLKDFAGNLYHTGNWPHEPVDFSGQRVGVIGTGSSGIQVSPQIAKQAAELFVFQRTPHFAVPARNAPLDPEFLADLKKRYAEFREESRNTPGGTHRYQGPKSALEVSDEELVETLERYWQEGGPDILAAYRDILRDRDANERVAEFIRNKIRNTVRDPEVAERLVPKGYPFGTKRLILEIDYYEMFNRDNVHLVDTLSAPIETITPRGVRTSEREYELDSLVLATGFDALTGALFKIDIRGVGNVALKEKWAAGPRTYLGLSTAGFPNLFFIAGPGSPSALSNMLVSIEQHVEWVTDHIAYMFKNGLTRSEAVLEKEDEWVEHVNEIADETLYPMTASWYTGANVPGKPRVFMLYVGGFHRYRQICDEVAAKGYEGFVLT

Structure (SMILES): Cc1cc2nc3c(=O)[nH]c(=O)nc-3n(C[C@H](O)[C@H](O)[C@H](O)COP(=O)(O)OP(=O)(O)OC[C@H]3O[C@@H](n4cnc5c(N)ncnc54)[C@H](O)[C@@H]3O)c2cc1C [FAD]
- UV-Vis absorbance ratio A280/A441 of the purified protein: The tagged variants of PAMO were purified as yellow proteins
